This is an account of results in ChEMBL document CHEMBL1129830, “A convenient synthesis of pseudoceratidine and three analogs for biological evaluation” (1997).

In brackets after ≈: the same amount, converted by molar mass. A value given as a limit tells only on which side of the number the result lay.

What all share (type): functional
Experiment [1] relates to Serratia liquefaciens. Briefly: Compound was evaluated for minimal inhibitory concentration against Serratia liquefaciens.
The subject of another experiment is Listeria monocytogenes. Briefly: Compound was evaluated for minimal inhibitory concentration against Listeria monocytogenes.
The test system of another experiment is Staphylococcus aureus. Briefly: Compound was evaluated for minimal inhibitory concentration against Staphylococcus aureus.
Experiment [2] relates to Pseudomonas aeruginosa. The experiment can be described thus: Compound was evaluated for minimal inhibitory concentration against Pseudomonas aeruginosa.
In another experiment the test system is Escherichia coli. The experiment can be described thus: Compound was evaluated for minimal inhibitory concentration against Escherichia coli.
The subject of experiment [3] is Serratia liquefaciens. The experiment can be described thus: Compound was evaluated for minimal inhibitory concentration against Serratia liquefaciens; Growth delayed by concentrations >= 100 ug/ml.
In experiment [4] the test system is Serratia liquefaciens. Briefly: Compound was evaluated for minimal inhibitory concentration against Serratia liquefaciens; Growth delayed by concentrations >= 50 ug/ml and almost totally inhibited by 500 ug/ml.
For experiment [5], the system named is Pseudomonas aeruginosa. The experiment can be described thus: Compound was evaluated for minimal inhibitory concentration against Pseudomonas aeruginosa; Growth delayed by concentrations >= 50 ug/ml and almost totally inhibited by 500 ug/ml.

Take `O=C(NCCCCNCCCNC(=O)c1cc(Br)c[nH]1)c1cc(Br)c[nH]1`: the MIC in the experiment with Serratia liquefaciens [1] is above 500 µg/mL; with Listeria monocytogenes it was 250 µg/mL (≈ 511 µM); against Staphylococcus aureus, 100 µg/mL (≈ 204 µM); with Pseudomonas aeruginosa [2], above 500 µg/mL; against Escherichia coli, 250 µg/mL (≈ 511 µM).

Consider `O=C(NCCCNCCCNC(=O)c1cc(Br)c(Br)[nH]1)c1cc(Br)c(Br)[nH]1`, for which the MIC is above 500 µg/mL against Serratia liquefaciens [3]; 10 µg/mL (≈ 15.8 µM) in the experiment on Listeria monocytogenes; 10 µg/mL (≈ 15.8 µM) in the experiment on Staphylococcus aureus; 100 µg/mL (≈ 158 µM) against Pseudomonas aeruginosa [2]; 50 µg/mL (≈ 79 µM) with Escherichia coli.

Consider `O=C(NCCNCCNCCNC(=O)c1cc(Br)c(Br)[nH]1)c1cc(Br)c(Br)[nH]1`, for which the MIC against Serratia liquefaciens [4] was above 500 µg/mL; in the experiment with Pseudomonas aeruginosa [5], above 500 µg/mL; against Listeria monocytogenes, 50 µg/mL (≈ 77.2 µM); against Staphylococcus aureus, 50 µg/mL (≈ 77.2 µM); in the experiment with Escherichia coli, 100 µg/mL (≈ 154 µM).

As for `O=C(NCCCCNCCCNC(=O)c1cc(Br)c(Br)[nH]1)c1cc(Br)c(Br)[nH]1`, the MIC against Serratia liquefaciens [1] was above 500 µg/mL; in the experiment on Listeria monocytogenes, 5 µg/mL (≈ 7.73 µM); in the experiment on Staphylococcus aureus it was 5 µg/mL (≈ 7.73 µM); with Pseudomonas aeruginosa [2], 250 µg/mL (≈ 386 µM); in the experiment with Escherichia coli it was 50 µg/mL (≈ 77.3 µM).

Usually MIC stands for the smallest concentration in the dilution series that meets the test's criterion for growth inhibition. A lower MIC goes with greater potency.
